System: Sprague-Dawley rats
Assay: Organ weights
Format: in vivo, Rattus norvegicus
Experimental: At the end of the treatment period (males on study day 28–31, females on study day 28–32) the rats were anesthetized with CO2/O2 (70/30%). Blood samples were drawn from the left ventricle using Venoject needles (Terumo) and Vacuette EDTA and serum blood collection tubes, and the rats were killed by exsanguination. EDTA blood was used for hematology investigations (see below). Serum was separated, divided into aliquots, frozen in liquid nitrogen and stored at −70°C for further analysis (see below). A complete necropsy (macroscopic observations, tissue sampling for molecular biology, biochemistry, histopathology, analytical chemistry and organ weights) was performed on each rat. The weights of the following organs were recorded: adrenals, brain, epididymides, heart, kidneys, liver, lungs, ovaries, pituitary, prostate (ventral), seminal vesicles, spleen, testes, thymus, thyroids (with parathyroids) and uterus. For molecular biology and biochemical analyses samples from brain, liver, kidney, bones, and several other tissues were snap frozen in liquid nitrogen and stored at −80°C for further analysis. […] Tissue samples for histopathology were preserved in 10% neutral buffered formalin except testis and epididymis, which were fixed in Bouin's solution for 24 h after which they were transferred into 70% ethanol.
Data were also analyzed using the BMD method, which is based on dose-response modeling of the full data set using a nested family of exponential and Hill models. The analyses were done on data of males and females combined, using sex as a covariate. […] In that case, different Critical Effect Doses (CEDs) and CEDs at the lowest bound of the confidence interval (CED-L) were generated for each sex. If no difference between sexes is detected, a CED and CED-Ls for the combined data is generated. However, this was also done if the curve fits are close, and separate analyses for males and females were then performed manually. CEDs and CED-Ls were calculated at the predefined Critical Effect Size (CES) of 5% (EFSA standard) or 10%.

[1] = females, total dose 1000 mg/kg bw, group mean
[2] = females, total dose 1700 mg/kg bw, group mean
[3] = males, CES 5%, total dose based
[4] = males, CES 10%, total dose based
[5] = males, adipose tissue concentration based
[6] = males, total dose 3 mg/kg bw, group mean
[7] = males, total dose 10 mg/kg bw, group mean
[8] = males, total dose 30 mg/kg bw, group mean
[9] = males, total dose 100 mg/kg bw, group mean
[10] = males, total dose 300 mg/kg bw, group mean
[11] = males, total dose 1000 mg/kg bw, group mean
[12] = males, total dose 1700 mg/kg bw, group mean

## Clc1cc(Cl)c(-c2cc(Cl)c(Cl)c(Cl)c2Cl)cc1Cl [PCB 180, 2,2′,3′,4,4′,5,5′-heptachlorobiphenyl]
[1]
  Organ weight, Spleen: 0.700 g
  Organ weight, Thymus: 0.528 g
  Organ weight, Thyroid gland: 0.0158 g
  Organ weight, Uterus: 0.374 g
[2]
  Organ weight, Adrenals: 0.0657 g
  Organ weight, Brain: 1.60 g
  Organ weight, Heart: 0.900 g
  Organ weight, Kidneys: 1.40 g
  Organ weight, Ovaries: 0.102 g
  Organ weight, Pituitary: 0.0108 g
  Organ weight, Spleen: 0.664 g
  Organ weight, Thymus: 0.560 g
  Organ weight, Thyroid gland: 0.0160 g
  Organ weight, Uterus: 0.366 g
males, total dose 0-1700 mg/kg bw
  Dose response, Thyroid gland weight: D, T
[3]
  Liver weight, CED: 11.6 mg/kg bw
  Liver weight, CED-L: 5.48 mg/kg bw
  Thyroid gland weight, CED: 239 mg/kg bw
  Thyroid gland weight, CED-L: 168 mg/kg bw
[4]
  Liver weight, CED: 24.2 mg/kg bw
  Liver weight, CED-L: 11.4 mg/kg bw
  Thyroid gland weight, CED: 467 mg/kg bw
  Thyroid gland weight, CED-L: 328 mg/kg bw
[5]
  Liver weight, CED: 42.3 µg/g lipid
  Thyroid weight, CED: 1030 µg/g lipid
[6]
  Organ weight, Adrenals: 0.0472 g
  Organ weight, Brain: 1.65 g
  Organ weight, Epididymides: 0.972 g
  Organ weight, Heart: 1.27 g
  Organ weight, Kidneys: 2.00 g
  Organ weight, Pituitary: 0.0091 g
  Organ weight, Seminal vesicles: 0.915 g
  Organ weight, Spleen: 0.828 g
  Organ weight, Testis L: 1.82 g
  Organ weight, Testis R: 1.82 g
  Organ weight, Thymus: 0.632 g
  Organ weight, Thyroid gland: 0.0210 g
  Organ weight, Ventral prostate: 0.492 g
[7]
  Organ weight, Adrenals: 0.0514 g
  Organ weight, Brain: 1.75 g
  Organ weight, Epididymides: 0.952 g
  Organ weight, Heart: 1.17 g
  Organ weight, Kidneys: 2.15 g
  Organ weight, Pituitary: 0.0088 g
  Organ weight, Seminal vesicles: 0.983 g
  Organ weight, Spleen: 0.828 g
  Organ weight, Testis L: 1.92 g
  Organ weight, Testis R: 1.88 g
  Organ weight, Thymus: 0.594 g
  Organ weight, Thyroid gland: 0.0221 g
  Organ weight, Ventral prostate: 0.451 g
[8]
  Organ weight, Adrenals: 0.0665 g
  Organ weight, Brain: 1.72 g
  Organ weight, Epididymides: 1.030 g
  Organ weight, Heart: 1.31 g
  Organ weight, Kidneys: 2.09 g
  Organ weight, Pituitary: 0.0098 g
  Organ weight, Seminal vesicles: 0.966 g
  Organ weight, Spleen: 0.876 g
  Organ weight, Testis L: 1.79 g
  Organ weight, Testis R: 1.78 g
  Organ weight, Thymus: 0.764 g
  Organ weight, Thyroid gland: 0.0227 g
  Organ weight, Ventral prostate: 0.518 g
[9]
  Organ weight, Adrenals: 0.0513 g
  Organ weight, Brain: 1.70 g
  Organ weight, Epididymides: 0.992 g
  Organ weight, Heart: 1.20 g
  Organ weight, Kidneys: 2.13 g
  Organ weight, Pituitary: 0.0107 g
  Organ weight, Seminal vesicles: 1.015 g
  Organ weight, Spleen: 0.826 g
  Organ weight, Testis L: 1.88 g
  Organ weight, Testis R: 1.88 g
  Organ weight, Thymus: 0.770 g
  Organ weight, Thyroid gland: 0.0236 g
  Organ weight, Ventral prostate: 0.521 g
[10]
  Organ weight, Adrenals: 0.0407 g
  Organ weight, Brain: 1.74 g
  Organ weight, Epididymides: 0.966 g
  Organ weight, Heart: 1.23 g
  Organ weight, Kidneys: 2.11 g
  Organ weight, Pituitary: 0.0098 g
  Organ weight, Seminal vesicles: 1.038 g
  Organ weight, Spleen: 0.858 g
  Organ weight, Testis L: 1.87 g
  Organ weight, Testis R: 1.85 g
  Organ weight, Thymus: 0.690 g
  Organ weight, Thyroid gland: 0.0266 g
  Organ weight, Ventral prostate: 0.536 g
[11]
  Organ weight, Adrenals: 0.0450 g
  Organ weight, Brain: 1.71 g
  Organ weight, Epididymides: 0.974 g
  Organ weight, Heart: 1.12 g
  Organ weight, Kidneys: 2.18 g
  Organ weight, Pituitary: 0.0115 g
  Organ weight, Seminal vesicles: 1.210 g
  Organ weight, Spleen: 0.858 g
  Organ weight, Testis L: 1.89 g
  Organ weight, Testis R: 1.85 g
  Organ weight, Thymus: 0.686 g
  Organ weight, Thyroid gland: 0.0294 g
  Organ weight, Ventral prostate: 0.566 g
[12]
  Organ weight, Adrenals: 0.0463 g
  Organ weight, Brain: 1.68 g
  Organ weight, Epididymides: 0.952 g
  Organ weight, Heart: 1.16 g
  Organ weight, Kidneys: 2.03 g
  Organ weight, Pituitary: 0.0089 g
  Organ weight, Seminal vesicles: 0.947 g
  Organ weight, Spleen: 0.800 g
  Organ weight, Testis L: 1.84 g
  Organ weight, Testis R: 1.88 g
  Organ weight, Thymus: 0.772 g
  Organ weight, Ventral prostate: 0.461 g
rat, in vivo
  Thymus weight: not decreased
